What was measured:
[1] = compatibility / gelling effect of ingredients in Gelrite solution; assay type: physicochemical; details: 0.1 mg/ml added; can be eliminated by adding a small amount of acetic acid
eye = details: rabbit, in vivo

Row | Substance | gelling effect in a Gelrite solution [1] | eye irritation (eye)
1 | benzalkonium chloride | slight gelling effect | –
2 | gellan gum | – | not regarded as an eye irritant

From patent US4861760A, “Ophthalmological composition of the type which undergoes liquid-gel phase transition” (Merck & Co., Inc., priority 1985, dated 1989)
